Test results as given in patent US9149519B2, “Chimeric human immunodeficiency virus type 1 (HIV-1) with enhanced dendritic cell and macrophage tropism comprising the simian immunodeficiency virus (SIV) minimal Vpx packaging domain” (New York University, priority 2012, dated 2015).

Columns and labels:
IFN-β mRNA = IFN-β mRNA induction in infected MDDC by qRT-PCR; format: cell-based, human; settings: AZT 25 μM or Raltegravir 10 μM added prior to infection
MDDC = format: cell-based, human
MDM and MDDC = experiment: Infectivity on MDM and MDDC (summary statements); format: cell-based, human; settings: accessory protein provided in trans
MDM = format: cell-based, human
resting CD4+ T cells = settings: Siliciano et al. 2012; cited from earlier work

Molecule	Effect on IFN-β induction by Vpx-containing p6 chimeric virus (IFN-β mRNA)	Effect of packaged accessory protein on infectivity of the p6 chimeric virus (MDDC)	Enhancement of MDM and MDDC infection (MDM and MDDC)	Effect of packaged accessory protein on infectivity of the p6 chimeric virus (MDM)	other results
Cc1nnc(C(=O)NC(C)(C)c2nc(C(=O)NCc3ccc(F)cc3)c(O)c(=O)n2C)o1 [Raltegravir]	blocked				
HIV-2rod Vpx: HIV-2 Vpx accessory protein from codon-optimized expression vector		enhanced the infectivity of the p6 chimeric virus	only slightly enhanced MDM and MDDC infection	enhanced the infectivity of the p6 chimeric virus on MDM	Activity relative to SIVmac239 Vpx (MDDC): about 8%
O=C(CCCCCCC(=O)Nc1ccccc1)NO [SAHA, suberoylanilide hydroxamic acid]					Virus reactivation (resting CD4+ T cells): induced virus reactivation from resting CD4+ T cells
Cc1cn([C@H]2C[C@H](N=[N+]=[N-])[C@@H](CO)O2)c(=O)[nH]c1=O [AZT]	blocked				
SIVagm Vpr: SIVagm protein termed Vpr but more similar to Vpx (protein, Simian immunodeficiency virus, SIVagm protein termed Vpr but more similar to Vpx) MAEGRDSRERRPGWLEIWDLSREPWDEGLRDMVAELNQEAQRHFGRELLFQVWNFCQEEGERNGAPMIERAYRYYRLVQKALFVHFRCGCRRRTPFEPYEERRNGVGGGRDGREPPPGLA		had no detectable effect	did not enhance the infection	had no detectable effect	
SIVmac239 Vpx: lentiviral accessory protein, codon-optimized expression vector, SEQ ID NO: 85 (protein, Simian immunodeficiency virus) MSDPRERIPPGNSGEETIGEAFEWLNRTVEEINREAVNHLPRELIFQVWQRSWEYWHDEQGMSPSYVKYRYLCLIQKALFMHCKKGCRCLGEGHGAGGWRPGPPPPPPPGLA		enhanced the infectivity of the p6 chimeric virus		enhanced the infectivity of the p6 chimeric virus on MDM	
